# How the values were obtained:
# [1] = pH of Curcumin dissolved in water; format: physicochemical
# Protocol: The prior art as described in above paragraphs clearly points that Curcumin is unstable in an alkaline solution and loses its golden yellow colour above a pH of 7.5. When pure Curcumin (95%) is dissolved in water, it gives a pH of 6.1. Even at a concentration of 30% solution of Curcumin, prepared by 30 gms of Curcumin in 70 gm hot water, kept in water bath at 55 degrees Celsius for 10 minutes and cooled to 25 degrees Celsius, it has an acidic pH. This Acidic pH of Curcumin is not suitable for making flavoured milk products. Any ingredient having pH less than 6.4 adversely affect milk proteins. The present invention solves this problem by optimizing the exact pH of Curcumin infused milk beverage so that the properties of beverage are preserved and good dispersibility and stability of Curcumin is obtained in the final composition.
# [2] = Water solubility of Curcumin; format: physicochemical; conditions: 95% pure Curcumin
# Protocol: The particle size of the Curcumin is about 125 micrometers and 95% of Curcumin can pass through 125 micrometers sieve and rest 5% is larger than 125 micrometers. In the final product, the Curcumin concentration is kept at a low concentration of 0.05% (wt/wt percentage for a batch). The concentration of Curcumin can go up to 0.15%. (wt/wt percentage for a batch) for particular milk beverage products. Thus, in an exemplary situation a 160 ml package of this milk beverage has approximately 80 mg of Curcumin and which can go up to 240 mg as required for ingestion.
structure (smiles),measurement,setting,value
"COc1cc(/C=C/C(=O)CC(=O)/C=C/c2ccc(O)c(OC)c2)ccc1O [Curcumin, diferuloylmethane]",pH,"[1]; 30% solution: 30 gms Curcumin in 70 gm hot water, 55 degrees Celsius 10 minutes, cooled to 25 degrees Celsius",acidic pH
same,pH,[1]; pure Curcumin (95%) dissolved in water,6.1
same,water solubility,[2],water insoluble

# From US10052293B2, “Curcumin infused milk beverage and a process for the preparation thereof” (priority 2016, dated 2018)
